Results from PubChem BioAssay (NCI).
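Step 1: Grow cells in 96-well plates. Step 2: Expose to compound for 48 hours at 5 concentrations. Step 3: Interpolate endpoints linearly; if unreached, use highest concentration. GI50: concentration for 50% inhibition of growth. At the TGI there is no net growth.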

Experiments:
Assay in all cases: growth of human tumour cells (NCI), 48 h
RPMI-8226 leukemia = test system: RPMI-8226 leukemia
DU-145 prostate = test system: DU-145 prostate
UACC-257 melanoma = test system: UACC-257 melanoma
CAKI-1 renal = test system: CAKI-1 renal
SN12C renal = test system: SN12C renal
SK-MEL-2 melanoma = test system: SK-MEL-2 melanoma
HL-60(TB) leukemia = test system: HL-60(TB) leukemia
OVCAR-8 ovarian = test system: OVCAR-8 ovarian
NCI-H522 lung = test system: NCI-H522 lung
SNB-75 CNS = test system: SNB-75 CNS
MCF7 breast = test system: MCF7 breast
ACHN renal = test system: ACHN renal
SF-295 CNS = test system: SF-295 CNS
HOP-92 NSCLC = test system: HOP-92 NSCLC
COLO 205 colon = test system: COLO 205 colon
HS 578T breast = test system: HS 578T breast
K-562 leukemia = test system: K-562 leukemia
MALME-3M melanoma = test system: MALME-3M melanoma
KM12 colon = test system: KM12 colon
OVCAR-5 ovarian = test system: OVCAR-5 ovarian
NCI-H23 lung = test system: NCI-H23 lung
BT-549 breast = test system: BT-549 breast
UO-31 renal = test system: UO-31 renal
786-0 renal = test system: 786-0 renal
TK-10 renal = test system: TK-10 renal
OVCAR-4 ovarian = test system: OVCAR-4 ovarian
MDA-MB-435 = test system: MDA-MB-435
HCT-15 colon = test system: HCT-15 colon
M14 melanoma = test system: M14 melanoma
MOLT-4 leukemia = test system: MOLT-4 leukemia
SF-539 CNS = test system: SF-539 CNS
CCRF-CEM leukemia = test system: CCRF-CEM leukemia
HCC-2998 colon = test system: HCC-2998 colon
A549 NSCLC = test system: A549 NSCLC
PC-3 prostate = test system: PC-3 prostate
SNB-19 CNS = test system: SNB-19 CNS
IGROV1 ovarian = test system: IGROV1 ovarian
SK-OV-3 ovarian = test system: SK-OV-3 ovarian
A498 renal = test system: A498 renal
EKVX NSCLC = test system: EKVX NSCLC
HT29 colon = test system: HT29 colon
MDA-MB-468 breast = test system: MDA-MB-468 breast
SR leukemia = test system: SR leukemia
LOX IMVI melanoma = test system: LOX IMVI melanoma
HCT-116 colon = test system: HCT-116 colon
MDA-MB-231 breast = test system: MDA-MB-231 breast
RXF 393 renal = test system: RXF 393 renal
SW-620 colon = test system: SW-620 colon
SK-MEL-5 melanoma = test system: SK-MEL-5 melanoma
NCI-H460 lung = test system: NCI-H460 lung
SK-MEL-28 melanoma = test system: SK-MEL-28 melanoma
T-47D breast = test system: T-47D breast
U251 CNS = test system: U251 CNS
UACC-62 melanoma = test system: UACC-62 melanoma
HOP-62 NSCLC = test system: HOP-62 NSCLC
OVCAR-3 ovarian = test system: OVCAR-3 ovarian
NCI-H226 lung = test system: NCI-H226 lung
SF-268 CNS = test system: SF-268 CNS

Question: Which results are given for `COc1cc(CNC(=O)/C=C/c2ccc3c(c2)OCO3)ccc1OCc1cn(-c2cccc(C(F)(F)F)c2)nn1`?
Answer: GI50 (RPMI-8226 leukemia): 18.5 µM; TGI (RPMI-8226 leukemia): > 100 µM; GI50 (DU-145 prostate): 10.7 µM; TGI (DU-145 prostate): 28.4 µM; GI50 (UACC-257 melanoma): 10.8 µM; TGI (UACC-257 melanoma): 25.4 µM; GI50 (CAKI-1 renal): 5.39 µM; TGI (CAKI-1 renal): 18.5 µM; GI50 (SN12C renal): 9.04 µM; TGI (SN12C renal): 27.6 µM; GI50 (SK-MEL-2 melanoma): 10.1 µM; TGI (SK-MEL-2 melanoma): 22.8 µM; GI50 (HL-60(TB) leukemia): 23.6 µM; TGI (HL-60(TB) leukemia): > 100 µM; GI50 (OVCAR-8 ovarian): 3.91 µM; TGI (OVCAR-8 ovarian): 15.4 µM; GI50 (NCI-H522 lung): 9.78 µM; TGI (NCI-H522 lung): 23.7 µM; GI50 (SNB-75 CNS): 1620 nM; TGI (SNB-75 CNS): 5.37 µM; GI50 (MCF7 breast): 4.23 µM; TGI (MCF7 breast): 22 µM; GI50 (ACHN renal): 5.24 µM; TGI (ACHN renal): 18.5 µM; GI50 (SF-295 CNS): 4.84 µM; TGI (SF-295 CNS): 17.8 µM; GI50 (HOP-92 NSCLC): 2610 nM; TGI (HOP-92 NSCLC): 8.28 µM; GI50 (COLO 205 colon): 10.4 µM; TGI (COLO 205 colon): 25 µM; GI50 (HS 578T breast): 4.39 µM; TGI (HS 578T breast): 24.8 µM; GI50 (K-562 leukemia): 17.5 µM; TGI (K-562 leukemia): > 100 µM; GI50 (MALME-3M melanoma): 2440 nM; TGI (MALME-3M melanoma): 9.61 µM; GI50 (KM12 colon): 15.5 µM; TGI (KM12 colon): 43 µM; GI50 (OVCAR-5 ovarian): 14.5 µM; TGI (OVCAR-5 ovarian): 31.8 µM; GI50 (NCI-H23 lung): 10.5 µM; TGI (NCI-H23 lung): 23.9 µM; GI50 (BT-549 breast): 4.83 µM; TGI (BT-549 breast): 19.3 µM; GI50 (UO-31 renal): 2600 nM; TGI (UO-31 renal): 10.1 µM; GI50 (786-0 renal): 6.2 µM; TGI (786-0 renal): 19.2 µM; GI50 (TK-10 renal): 13.5 µM; TGI (TK-10 renal): 32.2 µM; GI50 (OVCAR-4 ovarian): 2900 nM; TGI (OVCAR-4 ovarian): 10.3 µM; GI50 (MDA-MB-435): 8.25 µM; TGI (MDA-MB-435): 23.2 µM; GI50 (HCT-15 colon): 5.19 µM; TGI (HCT-15 colon): 26.6 µM; GI50 (M14 melanoma): 10.4 µM; TGI (M14 melanoma): 23.3 µM; GI50 (MOLT-4 leukemia): 10.1 µM; TGI (MOLT-4 leukemia): > 100 µM; GI50 (SF-539 CNS): 3.54 µM; TGI (SF-539 CNS): 12.7 µM; GI50 (CCRF-CEM leukemia): 32.1 µM; TGI (CCRF-CEM leukemia): > 100 µM; GI50 (HCC-2998 colon): 10.1 µM; TGI (HCC-2998 colon): 23.7 µM; GI50 (A549 NSCLC): 3.71 µM; TGI (A549 NSCLC): 15.9 µM; GI50 (PC-3 prostate): 13.4 µM; TGI (PC-3 prostate): 29.3 µM; GI50 (SNB-19 CNS): 13.2 µM; TGI (SNB-19 CNS): 27.9 µM; GI50 (IGROV1 ovarian): 15.3 µM; TGI (IGROV1 ovarian): 32.7 µM; GI50 (SK-OV-3 ovarian): 16.3 µM; TGI (SK-OV-3 ovarian): 36.5 µM; GI50 (A498 renal): 5.32 µM; TGI (A498 renal): 19.1 µM; GI50 (EKVX NSCLC): 13.1 µM; TGI (EKVX NSCLC): 29.5 µM; GI50 (HT29 colon): 14.9 µM; TGI (HT29 colon): 36.1 µM; GI50 (MDA-MB-468 breast): 10 µM; TGI (MDA-MB-468 breast): 22.8 µM; GI50 (SR leukemia): 21.3 µM; TGI (SR leukemia): > 100 µM; GI50 (LOX IMVI melanoma): 4.75 µM; TGI (LOX IMVI melanoma): 19 µM; GI50 (HCT-116 colon): 3.83 µM; TGI (HCT-116 colon): 14.9 µM; GI50 (MDA-MB-231 breast): 4.58 µM; TGI (MDA-MB-231 breast): 17.1 µM; GI50 (RXF 393 renal): 2930 nM; TGI (RXF 393 renal): 9.87 µM; GI50 (SW-620 colon): 5.86 µM; TGI (SW-620 colon): 22.5 µM; GI50 (SK-MEL-5 melanoma): 4.68 µM; TGI (SK-MEL-5 melanoma): 16.4 µM; GI50 (NCI-H460 lung): 3.28 µM; TGI (NCI-H460 lung): 11.6 µM; GI50 (SK-MEL-28 melanoma): 8.84 µM; TGI (SK-MEL-28 melanoma): 21.7 µM; GI50 (T-47D breast): 3.27 µM; TGI (T-47D breast): 26.6 µM; GI50 (U251 CNS): 4.5 µM; TGI (U251 CNS): 17.6 µM; GI50 (UACC-62 melanoma): 11 µM; TGI (UACC-62 melanoma): 23.4 µM; GI50 (HOP-62 NSCLC): 7.29 µM; TGI (HOP-62 NSCLC): 26 µM; GI50 (OVCAR-3 ovarian): 3.31 µM; TGI (OVCAR-3 ovarian): 11.6 µM; GI50 (NCI-H226 lung): 3.38 µM; TGI (NCI-H226 lung): 14.7 µM; GI50 (SF-268 CNS): 12 µM; TGI (SF-268 CNS): 34.8 µM
